Reference: PubChem BioAssay AID330 (DTP/NCI, 2004)
Values joined by “and” are separate entries in the source; they are usually repeats but may differ in a detail not shown here. Identical values can stand only once. Toxic doses and inconclusive results are not listed.

Test system: P388 leukemia ip, CD2F1 mice, survival T/C
Assay: NCI In Vivo Anticancer Drug Screen. Data for tumor model P388 Leukemia (intraperitoneal) in CD2F1 (CDF1) mice
Conditions: endpoint: median survival time, higher = longer survival
How it was run: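 Mice carrying the transplanted tumor received test compound or vehicle. Survival was recorded in each group, and the value is the treated-group measurement divided by that of the vehicle-treated control group.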

[1] = dose: 12.5 mg/kg/injection, schedule: Q01DX009 (ip), vehicle: saline
[2] = dose: 25.0 mg/kg/injection, schedule: Q01DX009 (ip), vehicle: saline
[3] = dose: 50.0 mg/kg/injection, schedule: Q01DX009 (ip), vehicle: saline
[4] = dose: 100.0 mg/kg/injection, schedule: Q01DX009 (ip), vehicle: saline
[5] = dose: 100.0 mg/kg/injection, schedule: Q01DX001 (ip), vehicle: Klucel (hydroxypropylcellulose) (HPC)
[6] = dose: 200.0 mg/kg/injection, schedule: Q01DX001 (ip), vehicle: Klucel (hydroxypropylcellulose) (HPC)
[7] = dose: 12.5 mg/kg/injection, schedule: Q01DX005 (ip), vehicle: saline with Tween-80
[8] = dose: 25.0 mg/kg/injection, schedule: Q01DX005 (ip), vehicle: saline with Tween-80
[9] = dose: 50.0 mg/kg/injection, schedule: Q01DX005 (ip), vehicle: saline with Tween-80
[10] = dose: 50.0 mg/kg/injection, schedule: Q01DX005 (ip), vehicle: Klucel (hydroxypropylcellulose) (HPC)
[11] = dose: 100.0 mg/kg/injection, schedule: Q01DX005 (ip), vehicle: Klucel (hydroxypropylcellulose) (HPC)
[12] = dose: 200.0 mg/kg/injection, schedule: Q01DX005 (ip), vehicle: Klucel (hydroxypropylcellulose) (HPC)
[13] = dose: 60.0 mg/kg/injection, schedule: Q01DX005 (ip), vehicle: Klucel (hydroxypropylcellulose) (HPC)
[14] = dose: 120.0 mg/kg/injection, schedule: Q01DX005 (ip), vehicle: Klucel (hydroxypropylcellulose) (HPC)
[15] = dose: 240.0 mg/kg/injection, schedule: Q01DX005 (ip), vehicle: Klucel (hydroxypropylcellulose) (HPC)
[16] = dose: 60.0 mg/kg/injection, schedule: Q01DX005 (ip), vehicle: saline with Tween-80
[17] = dose: 120.0 mg/kg/injection, schedule: Q01DX005 (ip), vehicle: saline with Tween-80
[18] = dose: 240.0 mg/kg/injection, schedule: Q01DX005 (ip), vehicle: saline with Tween-80
[19] = dose: 100.0 mg/kg/injection, schedule: Q01DX005 (ip), vehicle: saline with Tween-80
[20] = dose: 200.0 mg/kg/injection, schedule: Q01DX005 (ip), vehicle: saline with Tween-80

## Oc1ccc(O)c(Cl)c1Cl
[1]
  T/C: 105 % of control
[2]
  T/C: 98 % of control
dose: 25.0 mg/kg/injection, schedule: Q04DX003 (ip), vehicle: saline
  T/C: 106 % of control and 113 % of control
[3]
  T/C: 96 % of control
dose: 50.0 mg/kg/injection, schedule: Q04DX003 (ip), vehicle: saline
  T/C: 100 % of control and 120 % of control
[4]
  T/C: 104 % of control
dose: 100.0 mg/kg/injection, schedule: Q04DX002 (ip), vehicle: saline + alcohol
  T/C: 108 % of control
dose: 100.0 mg/kg/injection, schedule: Q04DX003 (ip), vehicle: saline
  T/C: 101 % of control and 118 % of control
dose: 200.0 mg/kg/injection, schedule: Q04DX002 (ip), vehicle: saline + alcohol
  T/C: 108 % of control
dose: 200.0 mg/kg/injection, schedule: Q04DX003 (ip), vehicle: saline
  T/C: 105 % of control
dose: 400.0 mg/kg/injection, schedule: Q04DX002 (ip), vehicle: saline + alcohol
  T/C: 99 % of control

## CN1CCN(C(=S)C(O)(c2ccccc2)c2ccccc2)CC1
[5]
  T/C: 105 % of control
[6]
  T/C: 105 % of control
dose: 400.0 mg/kg/injection, schedule: Q01DX001 (ip), vehicle: Klucel (hydroxypropylcellulose) (HPC)
  T/C: 100 % of control

## CC(C)OP(=S)(OC(C)C)SC(C)C
[3]
  T/C: 104 % of control
[4]
  T/C: 119 % of control
dose: 200.0 mg/kg/injection, schedule: Q01DX009 (ip), vehicle: saline
  T/C: 116 % of control

## NC(=O)C(=O)NNc1cccc(Cl)n1
dose: 50.0 mg/kg/injection, schedule: Q01DX001 (ip), vehicle: Klucel (hydroxypropylcellulose) (HPC)
  T/C: 96 % of control
[5]
  T/C: 98 % of control
[6]
  T/C: 103 % of control

## CN(C)c1ccc2nc3ccc(N)cc3[n+](-c3ccccc3)c2c1
dose: 3.12 mg/kg/injection, schedule: Q01DX005 (ip), vehicle: saline
  T/C: 106 % of control
dose: 6.25 mg/kg/injection, schedule: Q01DX005 (ip), vehicle: saline
  T/C: 106 % of control
dose: 12.5 mg/kg/injection, schedule: Q01DX005 (ip), vehicle: saline
  T/C: 112 % of control

## C/C(=N\NC(=S)N1CCCCCC1)c1cccc(C)n1
[7]
  T/C: 110 % of control
[8]
  T/C: 109 % of control
[9]
  T/C: 120 % of control

## CCn1c(-c2ccc(OC(C)=O)cc2)c(C)c2cc(OC(C)=O)ccc21
dose: 25.0 mg/kg/injection, schedule: Q01DX005 (ip), vehicle: Klucel (hydroxypropylcellulose) (HPC)
  T/C: 100 % of control
[10]
  T/C: 101 % of control and 102 % of control
[11]
  T/C: 95 % of control and 97 % of control
[12]
  T/C: 90 % of control and 96 % of control
dose: 400.0 mg/kg/injection, schedule: Q01DX005 (ip), vehicle: Klucel (hydroxypropylcellulose) (HPC)
  T/C: 100 % of control

## CCCCCCCCCCCC1C=CCC1 (centres undefined)
dose: 100.0 mg/kg/injection, schedule: Q01DX001 (ip), vehicle: saline
  T/C: 99 % of control
dose: 200.0 mg/kg/injection, schedule: Q01DX001 (ip), vehicle: saline
  T/C: 100 % of control
dose: 400.0 mg/kg/injection, schedule: Q01DX001 (ip), vehicle: saline
  T/C: 100 % of control

## O=C1c2ccccc2C(=O)N1CN(CS(=O)(=O)c1ccccc1)c1ccccc1
[13]
  T/C: 98 % of control
[14]
  T/C: 88 % of control
[15]
  T/C: 86 % of control

## CN1C(=S)C(=N)OC1c1ccccc1F (centres undefined)
[13]
  T/C: 106 % of control
[14]
  T/C: 105 % of control
[15]
  T/C: 103 % of control

## CN=C(NC)c1ccc(NC(=O)Nc2cccc(NC(=O)Nc3ccc(C(=NC)NC)cc3)c2)cc1
[7]
  T/C: 160 % of control and 177 % of control
[8]
  T/C: 195 % of control and 206 % of control

## COC(=O)c1cc(/C=C/c2ccccc2)[nH]c(=O)c1C#N
[16]
  T/C: 106 % of control
[17]
  T/C: 105 % of control
[18]
  T/C: 98 % of control

## CCOC(=O)NN(CC(=O)OCc1ccccc1)N=O
dose: 12.5 mg/kg/injection, schedule: Q01DX009 (ip), vehicle: other
  T/C: 109 % of control
dose: 25.0 mg/kg/injection, schedule: Q01DX009 (ip), vehicle: other
  T/C: 94 % of control
dose: 50.0 mg/kg/injection, schedule: Q01DX009 (ip), vehicle: other
  T/C: 100 % of control
dose: 100.0 mg/kg/injection, schedule: Q01DX009 (ip), vehicle: other
  T/C: 102 % of control
dose: 200.0 mg/kg/injection, schedule: Q01DX009 (ip), vehicle: other
  T/C: 98 % of control

## S=c1[nH]cc2cnccn12
dose: 50.0 mg/kg/injection, schedule: Q04DX003 (ip), vehicle: saline with Tween-80
  T/C: 100 % of control
dose: 100.0 mg/kg/injection, schedule: Q04DX003 (ip), vehicle: saline with Tween-80
  T/C: 110 % of control
dose: 200.0 mg/kg/injection, schedule: Q04DX003 (ip), vehicle: saline with Tween-80
  T/C: 110 % of control

## NCCNc1ncnc2ccc(Cl)cc12
[9]
  T/C: 97 % of control
[19]
  T/C: 93 % of control
[20]
  T/C: 92 % of control

## Nc1nc(C(Br)Br)c([N+](=O)[O-])c(=O)[nH]1
dose: 12.0 mg/kg/injection, schedule: Q01DX005 (ip), vehicle: saline with Tween-80
  T/C: 97 % of control
[7]
  T/C: 100 % of control
[8]
  T/C: 104 % of control and 94 % of control
[9]
  T/C: 112 % of control and 97 % of control

## CC(=O)N/N=C(/C(=O)O)c1ccccc1
dose: 100.0 mg/kg/injection, schedule: Q04DX002 (ip), vehicle: Klucel (hydroxypropylcellulose) (HPC)
  T/C: 98 % of control
dose: 200.0 mg/kg/injection, schedule: Q04DX002 (ip), vehicle: Klucel (hydroxypropylcellulose) (HPC)
  T/C: 99 % of control
dose: 400.0 mg/kg/injection, schedule: Q04DX002 (ip), vehicle: Klucel (hydroxypropylcellulose) (HPC)
  T/C: 95 % of control

## CC(C)C1NC(=O)C2=CN(Cc3ccccc3)C=CC2NC(=O)C(C(C)C)NC(=O)C2=CN(Cc3ccccc3)C=CC2NC1=O (centres undefined)
[16]
  T/C: 94 % of control
[17]
  T/C: 100 % of control
[18]
  T/C: 97 % of control

## C[N+]1(C)CCOCC1
dose: 1.56 mg/kg/injection, schedule: Q01DX009 (ip), vehicle: saline
  T/C: 94 % of control
dose: 6.25 mg/kg/injection, schedule: Q01DX009 (ip), vehicle: saline
  T/C: 100 % of control and 101 % of control
[1]
  T/C: 98 % of control
[2]
  T/C: 88 % of control

## C/C([O-])=c1\c(C)nn2ccc[n+]12
[8]
  T/C: 100 % of control
[9]
  T/C: 108 % of control
[19]
  T/C: 96 % of control
[20]
  T/C: 99 % of control

## c1ccc(C2OCC3(CO2)COC(c2ccccc2)OC3)cc1 (centres undefined)
dose: 50.0 mg/kg/injection, schedule: Q01DX009 (ip), vehicle: saline with Tween-80
  T/C: 90 % of control
dose: 100.0 mg/kg/injection, schedule: Q01DX009 (ip), vehicle: saline with Tween-80
  T/C: 100 % of control
dose: 200.0 mg/kg/injection, schedule: Q01DX009 (ip), vehicle: saline with Tween-80
  T/C: 90 % of control

## COc1ccc(N/C=C2\C(=O)CCc3c2oc2cc(Cl)c(O)c(Cl)c32)cc1
dose: 15.0 mg/kg/injection, schedule: Q01DX005 (ip), vehicle: Klucel (hydroxypropylcellulose) (HPC)
  T/C: 93 % of control
dose: 30.0 mg/kg/injection, schedule: Q01DX005 (ip), vehicle: Klucel (hydroxypropylcellulose) (HPC)
  T/C: 99 % of control
[13]
  T/C: 107 % of control and 93 % of control
[14]
  T/C: 102 % of control

## COc1ccc2[nH]cc(CC(NC(C)=O)C(=O)O)c2c1 (centres undefined)
[10]
  T/C: 98 % of control
[11]
  T/C: 104 % of control
[12]
  T/C: 101 % of control

## CCC[N+]12CC=C3COC(=O)C(C)(O)C(C)(O)C(C)C(=O)OC(CC1)C32 (centres undefined)
dose: 60.0 mg/kg/injection, schedule: Q01DX005 (ip), vehicle: saline
  T/C: 100 % of control
dose: 120.0 mg/kg/injection, schedule: Q01DX005 (ip), vehicle: saline
  T/C: 105 % of control
dose: 240.0 mg/kg/injection, schedule: Q01DX005 (ip), vehicle: saline
  T/C: 98 % of control

## CCCC[As](CCCC)SCC1OC(OC(C)=O)C(OC(C)=O)C(OC(C)=O)C1OC(C)=O (centres undefined)
dose: 50.0 mg/kg/injection, schedule: Q01DX009 (ip), vehicle: Klucel (hydroxypropylcellulose) (HPC)
  T/C: 113 % of control
dose: 100.0 mg/kg/injection, schedule: Q01DX009 (ip), vehicle: Klucel (hydroxypropylcellulose) (HPC)
  T/C: 92 % of control
